Legend:
[1] = test system: OVA-induced allergic conjunctivitis; experiment: Mouse model of OVA-induced allergic conjunctivitis; type: in vivo, BALB/c mice; conditions: 7-mer 100 μM eye drop twice a day for 4 days, FIG. 5C
Procedure: BALB/c mice (4- to 5-weeks old females) were sensitized intraperitoneally with 1 μg of ovalbumin (OVA) and 200 μl of 1.5% aluminum hydroxide (ALUM) on days 0 and 7, respectively; and then challenged two times topically in the conjunctival sac with 250 μg of OVA respectively on days 15 and 18. Control mice were given OVA with ALUM in sensitization stages, and PBS in place of OVA in challenge stages. For treatment, 7-mer was mixed with 1% CMC eye drop to a concentration 100 μM. After the OVA challenge (day 15), the mice were randomly assigned to two experimental groups (n=6 per group) and the eye was treated with 20 μl of 7-mer or vehicle eye drop twice a day for 4 days (to day 18). Twenty-four hrs after the final challenge with OVA (day 19), mice were euthanized and their eyes were harvested, fixed overnight in 4% paraformaldehyde and embedded in paraffin. To evaluate the eosinophilic infiltration, sections (5 μm) including eyelids were de-paraffinized and stained with acid-giemsa for detection of eosinophils.
Allergic conjunctivitis (AC) is characterized by conjunctival eosinophilic infiltration. […]

[2] = test system: IMQ-induced psoriasis-like skin inflammation; experiment: Mouse model of IMQ-induced psoriasis-like skin inflammation; type: in vivo, BALB/c mice
Procedure: All experimental procedures were approved by the Mackay Memorial Hospital Animal Care and Uses Committee and conducted according to national animal welfare regulations. Psoriasis-like skin inflammation was created by treating mouse skin with Imiquimod (IMQ) in accordance with the procedures described by van der Fits et al (J Immunol. (2009), 182, 5836-5845). Accordingly, each BALB/c mice (8 weeks old) received a daily topical dose of 62.5 mg of commercially available IMQ cream (5%) on the shaved back and the right ear for 6 consecutive days; whereas the control mice (normal group) were treated with a control cream. For treatment, 7-mer analogue was mixed with IMQ cream to a concentration 100 μM.
Keratinocyte proliferation was determined by 5-bromo-2′-deoxyuridine (BrdU) incorporation. BrdU (Sigma-Aldrich) was reconstituted in DMSO as a stock solution of 80 mM. 10 μl of BrdU mixed with 90 μl of PBS was intraperitoneally injected into each mouse for 24 hr prior to euthanasia. Back skin was fixed overnight in 4% paraformaldehyde and embedded in paraffin for immunohistochemistry.
In this example, the efficacy of the present synthetic peptides of Example 1 on IMQ-induced psoriasis-like skin inflammation was investigated. To this purpose, animals (8-week-old mice) were given a daily topical dose of IMQ cream on the shaved back for six consecutive days, so as to induce psoriasis-like skin inflammation and desquamation (FIG. 1; left panel).
Psoriasis is a disease resulted from abnormal keratinocyte proliferation, thus the effects of the present synthetic peptides on the proliferation of keratinocytes were also monitored in accordance with procedures described in the section of “Materials and Methods”. Results are illustrated in FIG. 2.

SMILES: CC(=O)N[C@@H](CC(=O)O)C(=O)N[C@@H](CC(C)C)C(=O)N[C@@H](Cc1ccc(O)cc1)C(=O)N[C@@H](CCCNC(=N)N)C(=O)N[C@H](C(=O)N[C@@H](CCCNC(=N)N)C(=O)N[C@@H](CO)C(N)=O)C(C)C [7-mer, NH2-Asp-Leu-Tyr-Arg-Val-Arg-Ser-COOH]
- infiltration of eosinophils in the conjunctiva [1]: decreased significantly
- number of BrdU-positive keratinocytes ([2]; 7-mer topically or via intraperitoneal injection, FIG. 2): significantly reduced
- level of skin inflammation and desquamation ([2]; topical cream containing IMQ and 7-mer peptide 100 μM, six consecutive days, FIG. 1): reduced significantly

— US10463710B2, “Short synthetic peptide for the treatment and/or prophylaxis of autoimmune and inflammatory disorders” (MacKay Memorial Hospital, priority 2015, dated 2019)
